How the values were obtained:
[1] = xn = mol fraction of the nth substance listed; conditions: Wilhelmy plate method
[2] = refractive index (Na D-line) (dimensionless); xn = mol fraction of the nth substance listed; conditions: 100.5 kPa, Liquid, Standard Abbe refractometry

COC(=O)c1ccccc1 [methyl benzoate] + CCO
Conditions	refractive index, 288.15 K	refractive index, 298.18 K	refractive index, 308.15 K	refractive index, 318.15 K	surface tension liquid-gas, 288.15 K [mN/m]	surface tension liquid-gas, 298.18 K [mN/m]	surface tension liquid-gas, 308.15 K [mN/m]	surface tension liquid-gas, 318.15 K [mN/m]
[1], x1 = 0.05	–	–	–	–	23.8	23	22.1	21.2
[1], x1 = 0.1	–	–	–	–	24.63	23.78	22.87	21.9
[1], x1 = 0.15	–	–	–	–	25.4	24.51	23.57	22.6
[1], x1 = 0.2	–	–	–	–	26.18	25.25	24.28	23.3
[1], x1 = 0.25	–	–	–	–	26.92	25.96	24.94	23.95
[1], x1 = 0.3	–	–	–	–	27.67	26.66	25.59	24.6
[1], x1 = 0.35	–	–	–	–	28.37	27.3	26.2	25.2
[1], x1 = 0.4	–	–	–	–	29.04	27.9	26.8	25.8
[1], x1 = 0.45	–	–	–	–	29.69	28.55	27.4	26.4
[1], x1 = 0.5	–	–	–	–	30.33	29.16	28	27
[1], x1 = 0.55	–	–	–	–	30.97	29.79	28.6	27.6
[1], x1 = 0.6	–	–	–	–	31.62	30.41	29.2	28.2
[1], x1 = 0.65	–	–	–	–	32.29	31.05	29.8	28.8
[1], x1 = 0.7	–	–	–	–	33.01	31.75	30.5	29.46
[1], x1 = 0.75	–	–	–	–	33.78	32.5	31.2	30.16
[1], x1 = 0.8	–	–	–	–	34.6	33.3	32	30.92
[1], x1 = 0.85	–	–	–	–	35.6	34.2	32.8	31.76
[1], x1 = 0.9	–	–	–	–	36.6	35.2	33.8	32.7
[1], x1 = 0.95	–	–	–	–	37.6	36.2	34.8	33.8
[1], x1 = 1	–	–	–	–	38.6	37.2	35.8	34.8
[2], x1 = 0.05	1.38013	1.37591	1.37154	1.36738	–	–	–	–
[2], x1 = 0.1	1.39497	1.39068	1.38617	1.38191	–	–	–	–
[2], x1 = 0.15	1.40825	1.40383	1.39926	1.39488	–	–	–	–
[2], x1 = 0.2	1.41993	1.41549	1.41088	1.40643	–	–	–	–
[2], x1 = 0.25	1.43052	1.42606	1.42138	1.41686	–	–	–	–
[2], x1 = 0.3	1.44018	1.4357	1.43104	1.42643	–	–	–	–
[2], x1 = 0.35	1.44896	1.44448	1.4398	1.43518	–	–	–	–
[2], x1 = 0.4	1.45703	1.45255	1.44784	1.44318	–	–	–	–
[2], x1 = 0.45	1.4645	1.46	1.45528	1.45059	–	–	–	–
[2], x1 = 0.5	1.47142	1.46691	1.4622	1.45746	–	–	–	–
[2], x1 = 0.55	1.47785	1.47332	1.46859	1.46384	–	–	–	–
[2], x1 = 0.6	1.48384	1.4793	1.47455	1.46979	–	–	–	–
[2], x1 = 0.65	1.48938	1.48487	1.4801	1.47528	–	–	–	–
[2], x1 = 0.7	1.49451	1.49	1.4852	1.48039	–	–	–	–
[2], x1 = 0.75	1.49936	1.49482	1.49002	1.48515	–	–	–	–
[2], x1 = 0.8	1.50381	1.49926	1.49445	1.48961	–	–	–	–
[2], x1 = 0.85	1.50803	1.50347	1.49866	1.49378	–	–	–	–
[2], x1 = 0.9	1.512	1.50743	1.5026	1.49773	–	–	–	–
[2], x1 = 0.95	1.51569	1.51112	1.50631	1.50144	–	–	–	–
[2], x1 = 1	1.51915	1.51467	1.50993	1.50514	–	–	–	–
